In the NIST ThermoML archive (doi:10.1016/j.jct.2005.08.005):

Experiments:
[1] = refractive index (other wavelength) (dimensionless); conditions: 101.3 kPa, Liquid, Wavelength=632.8 nm, Method described in references 3 and 4 of the article
[2] = refractive index (other wavelength) (dimensionless); xn = mol fraction of the nth substance listed; conditions: 101.3 kPa, Liquid, Wavelength=632.8 nm, Method described in references 3 and 4 of the article, x2 = 0

N#Cc1ccccc1 [benzonitrile]
[1]
Conditions	refractive index
294.62 K	1.5246
296.97 K	1.5235
299.08 K	1.5224
301.39 K	1.5213
303.42 K	1.5203
305.92 K	1.5191

CCCCCCCCCCCCCCCC [hexadecane]
[1]
Conditions	refractive index
294.85 K	1.4324
295.86 K	1.432
296.96 K	1.4315
297.9 K	1.4312
299.71 K	1.4304
301.21 K	1.4297
302.84 K	1.4291
304.26 K	1.4285

CCCCCCCCCCCCCCCC [hexadecane] + N#Cc1ccccc1
[2]
Conditions	refractive index
294.85 K	1.4324
295.86 K	1.432
296.96 K	1.4315
297.9 K	1.4312
299.71 K	1.4304
301.21 K	1.4297
302.84 K	1.4291
304.26 K	1.4285
